{"source": "ChEMBL document CHEMBL5523719", "about": "“Structure-activity relationship study of new carbazole sulfonamide derivatives as anticancer agents with dual-target mechanism” (Eur J Med Chem, 2024)", "key": {"MCF7 [1]": {"system": "MCF7", "assay": "Induction of cell cycle arrest in human MCF7 cells assessed as accumulation of cells at G0/G1 phase at 4 nM measured after 24 hrs by flow cytometry (reference value: 61.73%)", "format": "functional"}, "MCF7 [2]": {"system": "MCF7", "assay": "Induction of cell cycle arrest in human MCF7 cells assessed as increase in cyclin B1 protein expression at […] by Western blot analysis", "format": "functional, cell-based", "settings": "dose lower 12.5 µM"}, "MCF7 [3]": {"system": "MCF7", "assay": "Antiproliferation activity against human MCF7 cells measured after 72 hrs incubation by MTT assay", "format": "functional, cell-based", "settings": "MCF7, 72 h"}, "Tubulin (Homo sapiens) [4]": {"molecular_target": "T1, Tubulin (Homo sapiens) (UniProt P68371+Q9H4B7+P0DPH7+P68366+Q13509+Q71U36+P04350+Q3ZCM7+P07437+P68363+Q9BQE3+Q6PEY2+Q13885+Q9BVA1+Q9BUF5)", "assay": "In vitro inhibition of microtubule (unknown origin) assembly at 10 uM", "format": "protein-complex assay"}, "MIA PaCa-2": {"system": "MIA PaCa-2", "assay": "Antiproliferation activity against human MIA PaCa-2 cells measured after 72 hrs incubation by MTT assay", "format": "functional, cell-based", "settings": "MIA PaCa-2, 72 h"}, "MCF7 [5]": {"system": "MCF7", "assay": "Induction of apoptosis in human MCF7 cells assessed as necrotic cells at 25 nM measured after 48 hrs by AnnexinV/PI double staining assays (reference value: 0.89%)", "format": "functional"}, "MCF7 [6]": {"system": "MCF7", "assay": "Induction of apoptosis in human MCF7 cells assessed as necrotic cells at 6.25 nM measured after 48 hrs by AnnexinV/PI double staining assays (reference value: 0.89%)", "format": "functional"}, "HMEC-1 [7]": {"system": "HMEC-1", "assay": "Anti-proliferative activity against human HMEC-1 cells measured after 48 hrs", "format": "functional, cell-based", "settings": "HMEC-1, 48 h"}, "L02": {"system": "L02", "assay": "Antiproliferation activity against human L02 cells measured after 72 hrs incubation by MTT assay", "format": "functional, cell-based", "settings": "L02, 72 h"}, "NCI/ADR-RES": {"system": "NCI/ADR-RES", "assay": "Antiproliferation activity against human MCF7/ADR cells measured after 72 hrs incubation by MTT assay", "format": "functional, cell-based"}, "MCF7 [8]": {"system": "MCF7", "assay": "Induction of cell cycle arrest in human MCF7 cells assessed as accumulation of cells at G2/M phase at 4 nM measured after 24 hrs by flow cytometry (reference value: 22.84%)", "format": "functional"}, "HMEC-1 [9]": {"system": "HMEC-1", "assay": "Anti-migration activity in human HMEC-1 cells assessed as inhibition of cell migration at 5 nM measured after 48 hrs by Scratching assay", "format": "functional, cell-based"}, "MCF7 [10]": {"system": "MCF7", "assay": "Induction of apoptosis in human MCF7 cells assessed as early apoptotic cells at 6.25 nM measured after 48 hrs by AnnexinV/PI double staining assays (reference value: 5.32%)", "format": "functional"}, "MCF7 [11]": {"system": "MCF7", "assay": "Induction of apoptosis in human MCF7 cells assessed as karyolysis at 1 nM measured after 24 hrs by fluorescent microscopy", "format": "functional, cell-based"}, "MCF7 [12]": {"system": "MCF7", "assay": "Induction of apoptosis in human MCF7 cells assessed as viable cells at 50 nM measured after 48 hrs by AnnexinV/PI double staining assays (reference value: 91.20%)", "format": "functional", "settings": "read-out: Activity"}, "MCF7 [13]": {"system": "MCF7", "assay": "Induction of apoptosis in human MCF7 cells assessed as late apoptotic cells at 25 nM measured after 48 hrs by AnnexinV/PI double staining assays (reference value: 2.60%)", "format": "functional"}, "MCF7 [14]": {"system": "MCF7", "assay": "Induction of apoptosis in human MCF7 cells assessed as late apoptotic cells at 12.5 nM measured after 48 hrs by AnnexinV/PI double staining assays (reference value: 2.60%)", "format": "functional"}, "MDA-MB-231": {"system": "MDA-MB-231", "assay": "Antiproliferation activity against human MDA-MB-231 cells measured after 72 hrs incubation by MTT assay", "format": "functional, cell-based", "settings": "MDA-MB-231, 72 h"}, "MCF7 [15]": {"system": "MCF7", "assay": "Induction of cell cycle arrest in human MCF7 cells assessed as increase in phosphorylation of histone H3 at […] by Western blot analysis", "format": "functional, cell-based", "settings": "dose lower 12.5 µM"}, "MCF7 [16]": {"system": "MCF7", "assay": "Induction of cell cycle arrest in human MCF7 cells assessed as accumulation of cells at G2/M phase at 500 nM measured after 24 hrs by flow cytometry (reference value: 22.84%)", "format": "functional"}, "MCF7 [17]": {"system": "MCF7", "assay": "Induction of cell cycle arrest in human MCF7 cells assessed as accumulation of cells at G0/G1 phase at 25 nM measured after 24 hrs by flow cytometry (reference value: 61.73%)", "format": "functional"}, "MCF7 [18]": {"system": "MCF7", "assay": "Induction of apoptosis in human MCF7 cells assessed as viable cells at 12.5 nM measured after 48 hrs by AnnexinV/PI double staining assays (reference value: 91.20%)", "format": "functional", "settings": "read-out: Activity"}, "MCF7 [19]": {"system": "MCF7", "assay": "Induction of apoptosis in human MCF7 cells assessed as late apoptotic cells at 6.25 nM measured after 48 hrs by AnnexinV/PI double staining assays (reference value: 2.60%)", "format": "functional"}, "MCF7 [20]": {"system": "MCF7", "assay": "Induction of apoptosis in human MCF7 cells assessed as karyopyknosis at 5 nM measured after 24 hrs by fluorescent microscopy", "format": "functional, cell-based"}, "KB": {"system": "KB", "assay": "Antiproliferation activity against human KB cells measured after 72 hrs incubation by MTT assay", "format": "functional, cell-based"}, "MCF7 [21]": {"system": "MCF7", "assay": "Induction of apoptosis in human MCF7 cells assessed as late apoptotic cells at 50 nM measured after 48 hrs by AnnexinV/PI double staining assays (reference value: 2.60%)", "format": "functional"}, "Tubulin (Homo sapiens) [22]": {"molecular_target": "T1, Tubulin (Homo sapiens)", "assay": "Inhibition of microtubule assembly in human MCF7 cells assessed as disrupted microtubule network at 50 uM measured after 24 hrs incubation by anti-alpha-tubulin antibody (green) and Hoechst 33342 (blue) stained nuclei were obtained under microscopy", "format": "cell-based"}, "HMEC-1 [23]": {"system": "HMEC-1", "assay": "Angiogenic activity against human HMEC-1 cells assessed as decrease in vascular area measured after 48 hrs by Endothelial tube formation assay", "format": "functional, cell-based", "settings": "dose 1-100 nM"}, "MCF7 [24]": {"system": "MCF7", "assay": "Induction of apoptosis in human MCF7 cells assessed as early apoptotic cells at 50 nM measured after 48 hrs by AnnexinV/PI double staining assays (reference value: 5.32%)", "format": "functional"}, "MCF7 [25]": {"system": "MCF7", "assay": "Induction of cell cycle arrest in human MCF7 cells assessed as accumulation of cells at G2/M phase at 25 nM measured after 24 hrs by flow cytometry (reference value: 22.84%)", "format": "functional"}, "[26]": {"molecular_target": "Tubulin beta (Homo sapiens) (UniProt P68371+Q9H4B7+Q13509+P04350+Q3ZCM7+P07437+Q13885+Q9BVA1+Q9BUF5+A6NNZ2)", "assay": "Binding affinity to beta-tubulin colchicine binding site in human MCF7 cells assessed as inhibition of EBI-beta-tubulin adduct band formation preincubated for 2 hrs followed by EBI addition measured after 2 hrs by EBI competition based Western blotting analysis", "format": "cell-based", "settings": "dose 12.5-100 nM"}, "MCF7 [27]": {"system": "MCF7", "assay": "Induction of apoptosis in human MCF7 cells assessed as viable cells at 25 nM measured after 48 hrs by AnnexinV/PI double staining assays (reference value: 91.20%)", "format": "functional", "settings": "read-out: Activity"}, "MCF7 [28]": {"system": "MCF7", "assay": "Induction of apoptosis in human MCF7 cells assessed as viable cells at 6.25 nM measured after 48 hrs by AnnexinV/PI double staining assays (reference value: 91.20%)", "format": "functional", "settings": "read-out: Activity"}, "MCF7 [29]": {"system": "MCF7", "assay": "Induction of cell cycle arrest in human MCF7 cells assessed as accumulation of cells at G2/M phase at 100 nM measured after 24 hrs by flow cytometry (reference value: 22.84%)", "format": "functional"}, "Tubulin (Homo sapiens) [30]": {"molecular_target": "T1, Tubulin (Homo sapiens)", "assay": "Inhibition of microtubule assembly in human HepG2 cells assessed as disrupted microtubule network at 50 uM measured after 24 hrs incubation by anti-alpha-tubulin antibody (green) and Hoechst 33342 (blue) stained nuclei were obtained under microscopy", "format": "cell-based"}, "MCF7 [31]": {"system": "MCF7", "assay": "Induction of apoptosis in human MCF7 cells assessed as early apoptotic cells at 12.5 nM measured after 48 hrs by AnnexinV/PI double staining assays (reference value: 5.32%)", "format": "functional"}}, "note": "Active and inactive are the calls of the source. The rule behind the calls is not given here."}
{"compound": "COc1cc(NS(=O)(=O)c2ccc3c(c2)c2ccc(N)cc2n3C)c(OC)cc1Cl", "values": [{"measurement": "Activity", "setting": "MCF7 [1]", "result": 47.57, "unit": "%"}, {"measurement": "Activity", "setting": "MCF7 [2]", "result": "Dose-Dependent Effect"}, {"measurement": "IC50", "setting": "MCF7 [3]", "result": 0.0122, "unit": "µM"}, {"measurement": "inhibition", "setting": "Tubulin (Homo sapiens) [4]", "result": "Active"}, {"measurement": "IC50", "setting": "MIA PaCa-2", "result": 0.0133, "unit": "µM"}, {"measurement": "Activity", "setting": "MCF7 [5]", "result": 0.51, "unit": "%"}, {"measurement": "Activity", "setting": "MCF7 [6]", "result": 0.1, "unit": "%"}, {"measurement": "IC50", "setting": "HMEC-1 [7]", "result": 0.00642, "unit": "µM"}, {"measurement": "IC50", "setting": "L02", "result": 0.0185, "unit": "µM"}, {"measurement": "IC50", "setting": "NCI/ADR-RES", "result": 0.00186, "unit": "µM"}, {"measurement": "Activity", "setting": "MCF7 [8]", "result": 23.3, "unit": "%"}, {"measurement": "inhibition", "setting": "HMEC-1 [9]", "result": "Active"}, {"measurement": "Activity", "setting": "MCF7 [10]", "result": 16.87, "unit": "%"}, {"measurement": "Activity", "setting": "MCF7 [11]", "result": "Active"}, {"measurement": "viability at 0.05 µM", "setting": "MCF7 [12]", "result": 34.2, "unit": "%"}, {"measurement": "Activity", "setting": "MCF7 [13]", "result": 14.03, "unit": "%"}, {"measurement": "Activity", "setting": "MCF7 [14]", "result": 8.66, "unit": "%"}, {"measurement": "IC50", "setting": "MDA-MB-231", "result": 0.0312, "unit": "µM"}, {"measurement": "Activity", "setting": "MCF7 [15]", "result": "Dose-Dependent Effect"}, {"measurement": "Activity", "setting": "MCF7 [16]", "result": 53.2, "unit": "%"}, {"measurement": "Activity", "setting": "MCF7 [17]", "result": 36.18, "unit": "%"}, {"measurement": "viability at 0.0125 µM", "setting": "MCF7 [18]", "result": 64.2, "unit": "%"}, {"measurement": "Activity", "setting": "MCF7 [19]", "result": 7.06, "unit": "%"}, {"measurement": "Activity", "setting": "MCF7 [20]", "result": "Active"}, {"measurement": "IC50", "setting": "KB", "result": 0.00945, "unit": "µM"}, {"measurement": "Activity", "setting": "MCF7 [21]", "result": 14.69, "unit": "%"}, {"measurement": "inhibition", "setting": "Tubulin (Homo sapiens) [22]", "result": "Active"}, {"measurement": "Activity", "setting": "HMEC-1 [23]", "result": "Dose-Dependent Effect"}, {"measurement": "Activity", "setting": "MCF7 [24]", "result": 50.98, "unit": "%"}, {"measurement": "Activity", "setting": "MCF7 [25]", "result": 31.9, "unit": "%"}, {"measurement": "Activity", "setting": "[26]", "result": "Active"}, {"measurement": "viability at 0.025 µM", "setting": "MCF7 [27]", "result": 39.3, "unit": "%"}, {"measurement": "viability at 0.00625 µM", "setting": "MCF7 [28]", "result": 76.1, "unit": "%"}, {"measurement": "Activity", "setting": "MCF7 [29]", "result": 41.21, "unit": "%"}, {"measurement": "inhibition", "setting": "Tubulin (Homo sapiens) [30]", "result": "Active"}, {"measurement": "Activity", "setting": "MCF7 [31]", "result": 26.99, "unit": "%"}]}
